In patent US12606543B2, “Indole derivatives as serotonergic agents useful for the treatment of disorders related thereto” (priority 2023, dated 2026):

Legend:
Format in all cases: in vitro ADME
[1] = Liver microsomes stability, human
Method: (§1) The objective of this study was to estimate in vitro metabolic stability of exemplary compounds of Formula (I) or a pharmaceutically acceptable salt, solvate, and/or prodrug thereof in pooled human, male rat, and male mouse liver microsomes. The concentrations of compounds in reaction systems were evaluated by LC-MS/MS for estimating the stability in pooled human, male rat, and male mouse liver microsomes. The in vitro intrinsic clearances of test compounds were determined as well.
(§2) A master solution in the “Incubation Plate” containing phosphate buffer, ultra-pure H2O, MgCl2 solution and liver microsomes was made according to Table 33. The mixture was pre-warmed at 37° C. water bath for 5 minutes.
(§3) 40 μL of 10 mM nicotinamide adenine dinucleotide phosphate (NADPH) solution was added to each well. The final concentration of NADPH was 1 mM. The negative control samples were prepared by replacing NADPH with 40 μL of ultra-pure H2O. Samples were prepared in duplicate. Negative controls were prepared in singlet.
(§4) The reaction was started with the addition of 4 μL of 200 μM exemplary test compounds of the disclosure or control compounds to each master solution to get the final concentration of 2 μM. This study was performed in duplicate.
(§5) Aliquots of 50 μL were taken from the reaction solution at 0, 15, 30, 45, and 60 minutes. The reaction solutions were stopped by the addition of 4 volumes of cold methanol with IS (100 nM alprazolam, 200 nM imipramine, 200 nM labetalol, and 2 μM ketoprofen). Samples were centrifuged at 3,220 g for 40 minutes. Aliquot of 90 μL of the supernatant was mixed with 90 μL of ultra-pure H2O and then was used for LC-MS/MS analysis.
(§6) LC/MS analysis was performed for all samples from this study using a Shimadzu liquid chromatograph separation system equipped with degasser DGU-20A5R; solvent delivery unit LC-30AD; system controller SIL-30AC; column oven CTO-30A; CTC Analytics HTC PAL System. Mass spectrometric analysis was performed using a Triple Quad™ 5500 instrument.
(§7) All calculations were carried out using Microsoft Excel. Peak area ratios of test compound to internal standard (listed in the below table) were determined from extracted ion chromatograms.
(§8) All calculations were carried out using Microsoft Excel. Peak areas were determined from extracted ion chromatograms. The slope value, k, was determined by linear regression of the natural logarithm of the remaining percentage of the parent drug vs. incubation time curve.
(§9) The in vitro half-life (in vitro t1/2) was determined from the slope value:
(§10) Conversion of the in vitro t1/2 (min) into the in vitro intrinsic clearance (in vitro CLint, in μL/min/mg proteins) was done using the following equation (mean of duplicate determinations): […]
as §1, with “solvate” for “solvate,”, “rat” for “rat,”
(§11) A master solution in the “Incubation Plate” containing phosphate buffer, ultra-pure H2O, MgCl2 solution and liver microsomes was made according to Table 67. The mixture was pre-warmed at 37° C. water bath for 5 minutes.
(§12) 40 μL of 10 mM NADPH solution was added to each well. The final concentration of NADPH was 1 mM. The negative control samples were prepared by replacing NADPH with 40 μL of ultra-pure H2O. Samples were prepared in duplicate. Negative controls were prepared in singlet
Aliquots of 50 μL were taken from the reaction solution at 0, 15, 30, 45 and 60 minutes. The reaction solutions were stopped by the addition of 4 volumes of cold methanol with IS (100 nM alprazolam, 200 nM imipramine, 200 nM labetalol and 2 μM ketoprofen).

[2] = Liver microsomes stability, rat; settings: for CLint / T1/2: 2 μM, 0.5 mg/mL, NADPH
Method: as §1, §2, §3, §4, §5, §6, §7, §8, §9, §10
as §1, with “solvate” for “solvate,”, “rat” for “rat,”
as §11, §12
(§13) Aliquots of 50 μL were taken from the reaction solution at 0, 15, 30, 45 and 60 minutes. The reaction solutions were stopped by the addition of 4 volumes of cold methanol with IS (100 nM alprazolam, 200 nM imipramine, 200 nM labetalol and 2 μM ketoprofen). […]

[3] = Liver microsomes stability, mouse; settings: for T1/2: <4.51 if % remaining at 30 min below 1%
Method: as §1, §2, §3, §4, §5, §6, §7, §8, §9, §10
as §1, with “solvate” for “solvate,”, “rat” for “rat,”
as §11, §12, §13

[4] = Human liver microsomes, 2 μM, 0.5 mg/mL, NADPH
[5] = human liver microsomes, With Cofactors, 0 min
[6] = human liver microsomes, With Cofactors, 30 min
[7] = human liver microsomes, With Cofactors, 60 min
[8] = human liver microsomes, Without Cofactors, 0 min
[9] = human liver microsomes, Without Cofactors, 30 min
[10] = human liver microsomes, Without Cofactors, 60 min
[11] = Rat liver microsomes, With Cofactors, 0 min
[12] = Rat liver microsomes, With Cofactors, 30 min
[13] = Rat liver microsomes, With Cofactors, 60 min
[14] = Rat liver microsomes, Without Cofactors, 0 min
[15] = Rat liver microsomes, Without Cofactors, 30 min
[16] = Rat liver microsomes, Without Cofactors, 60 min
[17] = rat liver microsomes, With Cofactors, 0 min
[18] = rat liver microsomes, With Cofactors, 30 min
[19] = rat liver microsomes, With Cofactors, 60 min
[20] = rat liver microsomes, Without Cofactors, 0 min
[21] = rat liver microsomes, Without Cofactors, 30 min
[22] = rat liver microsomes, Without Cofactors, 60 min
[23] = Mouse liver microsomes, 2 μM, 0.5 mg/mL, NADPH
[24] = mouse liver microsomes, With Cofactors, 0 min
[25] = mouse liver microsomes, With Cofactors, 30 min
[26] = mouse liver microsomes, With Cofactors, 60 min
[27] = mouse liver microsomes, Without Cofactors, 0 min
[28] = mouse liver microsomes, Without Cofactors, 30 min
[29] = mouse liver microsomes, Without Cofactors, 60 min

## COc1ccc2[nH]cc(CCN(C)C)c2c1 [5-MeO-DMT]
[1]; Human liver microsomes
  Predicted hepatic CL: 18.09 mL/min/kg
  Scaled-up CLint: 143.22 mL/min/kg
[1]; [4]
  CLint: 114.19 μL/min/mg protein
  T1/2: 12.14 min
[1]; [5]
  Remaining Percentage: 100.00%
  Remaining Percentage (%) 0 min: 100.00%
[1]; [6]
  Remaining Percentage: 19.24%
  Remaining Percentage (%) 30 min: 19.24%
[1]; [7]
  Remaining Percentage: 3.25%
  Remaining Percentage (%) 60 min: 3.25%
[1]; [8]
  Remaining Percentage: 100.00%
  Remaining Percentage (%) 0 min: 100.00%
[1]; [9]
  Remaining Percentage: 18.58%
  Remaining Percentage (%) 30 min: 18.58%
[1]; [10]
  Remaining Percentage: 3.00%
  Remaining Percentage (%) 60 min: 3.00%
[2]; Rat liver microsomes
  Predicted hepatic CL: 49.02 mL/min/kg
  Scaled-up CLint: 437.56 mL/min/kg
  CLint: 244.17 μL/min/mg protein
  T1/2: 5.68 min
[2]; [11]
  Remaining Percentage (%) 0 min: 100.00%
[2]; [12]
  Remaining Percentage (%) 30 min: 2.57%
[2]; [13]
  Remaining Percentage (%) 60 min: 0.36%
[2]; [14]
  Remaining Percentage (%) 0 min: 100.00%
[2]; [15]
  Remaining Percentage (%) 30 min: 49.55%
[2]; [16]
  Remaining Percentage (%) 60 min: 23.82%
[2]; [17]
  Remaining Percentage: 100.00%
[2]; [18]
  Remaining Percentage: 2.57%
[2]; [19]
  Remaining Percentage: 0.36%
[2]; [20]
  Remaining Percentage: 100.00%
[2]; [21]
  Remaining Percentage: 49.55%
[2]; [22]
  Remaining Percentage: 23.82%
[3]; Mouse liver microsomes
  Predicted hepatic CL: 54.19 mL/min/kg
  Scaled-up CLint: 136.21 mL/min/kg
[3]; [23]
  T1/2: 44.52 min
[3]; Mouse liver microsomes, 2 μM, 0.5 mg/mL, NADPH, >307.01 if % remaining at 30 min below 1%
  CLint: 31.13 μL/min/mg protein
[3]; [24]
  Remaining Percentage: 100.00%
  Remaining Percentage (%) 0 min: 100.00%
[3]; [25]
  Remaining Percentage: 61.84%
  Remaining Percentage (%) 30 min: 61.84%
[3]; [26]
  Remaining Percentage: 39.30%
  Remaining Percentage (%) 60 min: 39.30%
[3]; [27]
  Remaining Percentage: 100.00%
  Remaining Percentage (%) 0 min: 100.00%
[3]; [28]
  Remaining Percentage: 104.76%
  Remaining Percentage (%) 30 min: 104.76%
[3]; [29]
  Remaining Percentage: 95.24%
  Remaining Percentage (%) 60 min: 95.24%

## O=C(O)Cc1ccccc1Nc1c(Cl)cccc1Cl [Diclofenac]
[1]; Human liver microsomes
  Predicted hepatic CL: 18.35 mL/min/kg
  Scaled-up CLint: 161.94 mL/min/kg
[1]; human liver microsomes
  Predicted hepatic CL: 18.38 mL/min/kg
  Scaled-up CLint: 164.18 mL/min/kg
[1]; [5]
  Remaining Percentage: 100.00%
  Remaining Percentage (%) 0 min: 100.00%
[1]; [6]
  Remaining Percentage: 5.01%
  Remaining Percentage (%) 30 min: 5.01%
[1]; [7]
  Remaining Percentage: 1.77%
  Remaining Percentage (%) 60 min: 1.77%
[1]; [8]
  Remaining Percentage: 100.00%
  Remaining Percentage (%) 0 min: 100.00%
[1]; [9]
  Remaining Percentage: 112.67%
  Remaining Percentage (%) 30 min: 112.67%
[1]; [10]
  Remaining Percentage: 96.67%
  Remaining Percentage (%) 60 min: 96.67%
[2]; Rat liver microsomes
  Predicted hepatic CL: 41.25 mL/min/kg
  Scaled-up CLint: 163.16 mL/min/kg
  CLint: 91.05 μL/min/mg protein
  T1/2: 15.22 min
[2]; [11]
  Remaining Percentage (%) 0 min: 100.00%
[2]; [12]
  Remaining Percentage (%) 30 min: 11.86%
[2]; [13]
  Remaining Percentage (%) 60 min: 6.35%
[2]; [14]
  Remaining Percentage (%) 0 min: 100.00%
[2]; [15]
  Remaining Percentage (%) 30 min: 102.19%
[2]; [16]
  Remaining Percentage (%) 60 min: 100.63%
[2]; rat liver microsomes
  Predicted hepatic CL: 41.22 mL/min/kg
  Scaled-up CLint: 162.69 mL/min/kg
[2]; [17]
  Remaining Percentage: 100.00%
[2]; [18]
  Remaining Percentage: 11.86%
[2]; [19]
  Remaining Percentage: 6.35%
[2]; [20]
  Remaining Percentage: 100.00%
[2]; [21]
  Remaining Percentage: 102.19%
[2]; [22]
  Remaining Percentage: 100.63%
[3]; Mouse liver microsomes
  Predicted hepatic CL: 54.78 mL/min/kg
  Scaled-up CLint: 140.00 mL/min/kg
[3]; [23]
  T1/2: 43.31 min
[3]; mouse liver microsomes
  Predicted hepatic CL: 56.11 mL/min/kg
  Scaled-up CLint: 149.03 mL/min/kg
[3]; mouse liver microsomes, 2 μM compound, 0.5 mg/mL microsomes
  CLint: 34.06 μL/min/mg protein
[3]; [24]
  Remaining Percentage: 100.00%
  Remaining Percentage (%) 0 min: 100.00%
[3]; [25]
  Remaining Percentage: 45.55%
  Remaining Percentage (%) 30 min: 45.55%
[3]; [26]
  Remaining Percentage: 33.71%
  Remaining Percentage (%) 60 min: 33.71%
[3]; [27]
  Remaining Percentage: 100.00%
  Remaining Percentage (%) 0 min: 100.00%
[3]; [28]
  Remaining Percentage: 89.49%
  Remaining Percentage (%) 30 min: 89.49%
[3]; [29]
  Remaining Percentage: 96.59%
  Remaining Percentage (%) 60 min: 96.59%
